# Laboratory results as given in patent US10125125B2, “N-(heteroaryl)-sulfonamide derivatives useful as S100-inhibitors” (Active Biotech AB, priority 2013, dated 2018).
# Where two headings read alike, the source gives them in different places.
# What was measured:
# [1] = Prodrug assay: plasma concentrations of prodrugs and demethylated parents after cassette dosing, LC-MS; type: in vivo, C57 Bl/6 mice; conditions: C57 Bl/6, mouse, solution, read-out: Parent (demethylated compound) Conc. in plasma after prodrug dosing
# Method: ABR-239313, 239470 and 239749 were administered to seven C57 Bl/6 mice as a cassette formulation either intravenously (4 animals, nominal 1 mg/kg) or per oral (3 animals, nominal 5 mg/kg).
# Blood samples were collected at time points ranging from 5 minutes to 7 hours after administration. After sample withdrawal, plasma was directly separated and frozen until analysis.
# The plasma as well as the formulation samples were analyzed with respect to the concentration of ABR-239313, 239470, 239749 and the corresponding demethylated compounds, i.e. Examples 9, 75 and 73 (ABR-239247, 239417 and 239167) by means of LC-MS.
# The samples were precipitated with acidified acetonitrile and centrifuged prior to injection on LC-MS system (consisting of a triple quadrupole instrument operated in negative MRM ionization mode, and a fast-gradient reversed-phase LC on a Symmetry Shield RP18, 2×30 mm, 3.5 um column).
# In Table 3 the concentrations of each analyte are presented.
# [2] = target: biotinylated human S100A9 : rhRAGE-Fc interaction (Homo sapiens (Human), UniProt P06702); assay: AlphaScreen inhibition assay, Biot-hS100A9:hRAGE-Fc (S100A9-RAGE inhibition assay); type: binding
# From the text: FIG. 1 is a schematic representation of an assay of the inhibition of the interaction between biotinylated human S100A9 and human RAGE-Fc using a small molecule S100A9 binder.
# Inhibition Assay, Biot-hS100A9:hRAGE-Fc
# The AlphaScreen (Amplified Luminescent Proximity Homogeneous Assay) contains two types of beads, Alpha Donor beads and Acceptor beads (PerkinElmer). Upon laser excitation at 680 nm a photosensitizer in the Donor bead converts ambient oxygen to a more excited singlet state. The singlet oxygen molecule diffuses (maximum 200 nm) to react with a thioxene derivative in the Acceptor bead and generates a chemiluminescence reaction. Fluorophores in the Acceptor bead subsequently emit light at 520-620 nm which can be detected in the EnVision® Multilabel plate Reader (PerkinElmer). The beads are light sensitive and all work with the beads is performed under subdued light conditions or using green filters on light sources (Roscolux Chroma Green #389, Rosco).
# In the AlphaScreen Inhibition Assay described here, protein A (Staphylococcus aureus) conjugated Acceptor beads are used together with streptavidin coated Donor beads (Perkin Elmer 6760617M). The Acceptor beads are pre-incubated with Fc-tagged recombinant human RAGE (rhRAGE-Fc) allowing binding of the rhRAGE-Fc to protein A on the beads. Biotinylated human S100A9 (biot-hS100A9) is pre-incubated with the low molecular test compounds. The pre-mixes are then added to the wells of a micro-plate and incubated allowing interaction between biot-hS100A9 and rhRAGE-Fc. Subsequent addition of streptavidin coated Donor beads causes binding of the streptavidin to the biotinylated hS100A9. After an additional incubation the signal is measured.
# Without inhibitory compounds, the interaction of biot-hS100A9 to rhRAGE-Fc will bring the Acceptor and Donor beads in close proximity thus generating a high signal. With an inhibitor present the complex will not form resulting in a decreased signal.
# Chemicals and reagents. • AlphaScreen® General IgG (Protein A) Detection Kit, (PerkinElmer 6760617M) • HBS-P buffer (GE Healthcare, BR-1003-68) • HBS-N buffer (GE Healthcare, BR-1003-69) • CaCl2 in HBS-P • ZnCl2 in Milli-Q water • DMSO • Biotinylated hS100A9, (biotinylated via cystein by EZ-link Iodoacetyl-PEG2-Biotin reagent (Pierce no. 21334), in HBS-N • rhRAGE-Fc (R&D Systems, 1145-RG-50), in HBS-P
# The AlphaScreen assay method is used for screening of the inhibitory effect of different compound samples at fixed concentrations or for IC50 determination by varying the compound concentrations. Samples of test compounds and references are prepared from solutions in DMSO. Relevant reference inhibitors and DMSO are used as controls for defined inhibition and non-inhibition, respectively in the assay. The percent inhibition in assay for test compounds and references are calculated by comparing their obtained assay signals with the signal values for the control with only DMSO (no compound).
# Assay concentration of biotinylated hS100A9 and rhRAGE-Fc are batch dependent, and are determined and defined by separate cross-titration experiments using this AlphaScreen inhibition method to verify the optimal setup regarding signal strength and achievement of a defined inhibition with relevant reference compounds. The Final assay concentrations of Acceptor and Donor beads are 20 μg/mL.
# Experimental Set Up for Screening, Preparation of Solutions and Beads.
# Assay buffer is prepared by adding CaCl2 and ZnCl2 to HBS-P and is used freshly prepared in the experiment.
# Biotin-hS100A9 solution for the experiment is prepared by dilution of appropriate amount of stock solution biot-hS100A9 in assay buffer (with CaCl2 and ZnCl2) and incubation in room temperature for 30 minutes.
# rhRAGE-Fc solution for the experiment is prepared by dilution appropriate amount of rhRAGE-Fc stock in assay buffer.
# Protein A Acceptor beads are diluted in assay buffer and are added to an equal volume of the prepared diluted rhRAGE-Fc solution.
# [3] = intravenous, i.v. cassette of prodrugs, nominal 1 mg/kg
# [4] = oral, p.o. cassette of prodrugs, nominal 5 mg/kg
# Chain of biotinylated human S100A9 : rhRAGE-Fc interaction (P06702 whole entry): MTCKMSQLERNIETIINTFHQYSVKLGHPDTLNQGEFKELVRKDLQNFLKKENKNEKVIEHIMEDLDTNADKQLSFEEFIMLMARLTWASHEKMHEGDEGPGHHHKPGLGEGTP
compound,measurement,setting,value
"O=S(=O)(Cc1ccc(Cl)c(Cl)c1)Nc1ncc(Br)nc1O [Example 75, N-(5-bromo-3-hydroxypyrazin-2-yl)-1-(3,4-dichlorophenyl)methanesulfonamide]",concentration at 0.083 h,[1]; [3],120 nM
same,concentration at 0.5 h,[1]; [3],320 nM
same,concentration at 1 h,[1]; [3],320 nM
same,concentration at 2 h,[1]; [3],320 nM
same,concentration at 4 h,[1]; [3],210 nM
same,concentration at 7 h,[1]; [3],200 nM
same,concentration at 0.5 h,[1]; [4],570 nM
same,concentration at 1 h,[1]; [4],860 nM
same,concentration at 2 h,[1]; [4],800 nM
same,concentration at 4 h,[1]; [4],630 nM
same,concentration at 7 h,[1]; [4],1100 nM
same,IC50,[2],250 nM
"O=S(=O)(Cc1cc(Cl)cc(Cl)c1)Nc1ncc(Cl)cc1O [Example 9, N-(5-chloro-3-hydroxypyridin-2-yl)-1-(3,5-dichlorophenyl)methanesulfonamide]",concentration at 0.083 h,[1]; [3],44 nM
same,concentration at 0.5 h,[1]; [3],5 nM
same,concentration at 1 h,[1]; [3],3 nM
same,concentration at 2 h,[1]; [3],6 nM
same,concentration at 4 h,[1]; [3],4 nM
same,concentration at 7 h,[1]; [3],4 nM
same,concentration at 0.5 h,[1]; [4],45 nM
same,concentration at 1 h,[1]; [4],26 nM
same,concentration at 2 h,[1]; [4],21 nM
same,concentration at 4 h,[1]; [4],12 nM
same,concentration at 7 h,[1]; [4],19 nM
same,IC50,[2],120 nM
